In brackets after ≈: the same amount, converted by molar mass.
Assays:
Type in all cases: cell-based
S. aureus MP-12 = test: Broth dilution MIC determination (CLSI), S. aureus MP-12; conditions: Staphylococcus aureus, MP12; strain MP-12, broth dilution
E. coli MP-4 = test: Broth dilution MIC determination (CLSI), E. coli MP-4; conditions: Escherichia coli, MP4; strain MP-4, broth dilution; read-out: MIC E. coli MP-4
K. pneumoniae MP-546 = test: Broth dilution MIC determination (CLSI), K. pneumoniae MP-546; conditions: Klebsiella pneumoniae, MP546; strain MP-546, broth dilution
P. aeruginosa MP-3 = test: Broth dilution MIC determination (CLSI), P. aeruginosa MP-3; conditions: Pseudomonas aeruginosa, MP3; strain MP-3, broth dilution
A. baumannii MP-15 = test: Broth dilution MIC determination (CLSI), A. baumannii MP-15; conditions: Acinetobacter baumannii, MP15; strain MP-15, broth dilution; read-out: MIC A. baumanii MP-15

MIC (S. aureus MP-12) [µg/mL] | MIC (E. coli MP-4) [µg/mL] | MIC (K. pneumoniae MP-546) [µg/mL] | MIC (P. aeruginosa MP-3) [µg/mL] | MIC (A. baumannii MP-15) [µg/mL] | SMILES
4 to 32 (≈ 6 to 48 µM) | < 4 | 4 to 32 (≈ 6 to 48 µM) | > 32 | > 32 | CO[C@]1(C)C[C@@H](C)CN(C)[C@H](C2CN(CC(=O)N3CCCC3)C2)COC(=O)C(C)(C)C(=O)[C@H](C)[C@H]1O[C@@H]1O[C@H](C)C[C@H](N(C)C)[C@H]1O [Compound 45, (3R,6R,8R,9R,10R)-9-(((2S,3R,4S,6R)-4-(dimethylamino)-3-hydroxy-6-methyltetrahydro-2H-pyran-2-yl)oxy)-8-methoxy-4,6,8,10,12,12-hexamethyl-3-(1-(2-oxo-2-(pyrrolidin-1-yl)ethyl)azetidin-3-yl)-1-oxa-4-azacyclotridecane-11,13-dione]
> 32 | < 4 | 4 to 32 (≈ 6.54 to 52.3 µM) | > 32 | > 32 | CO[C@]1(C)C[C@@H](C)CN(C)[C@H]([C@@H]2CCN(C(C)C)C2)COC(=O)C(C)(C)C(=O)[C@H](C)[C@H]1O[C@@H]1O[C@H](C)C[C@H](N(C)C)[C@H]1O [Compound 46, (3R,6R,8R,9R,10R)-9-(((2S,3R,4S,6R)-4-(Dimethylamino)-3-hydroxy-6-methyltetrahydro-2H-pyran-2-yl)oxy)-3-((R)-1-isopropylpyrrolidin-3-yl)-8-methoxy-4,6,8,10,12,12-hexamethyl-1-oxa-4-azacyclotridecane-11,13-dione]
> 32 | 4 to 32 (≈ 6.69 to 53.5 µM) | > 32 | > 32 | > 32 | CO[C@]1(C)C[C@@H](C)CN(C)[C@H](C2CCNCC2)[C@H](C)OC(=O)C(C)(C)C(=O)[C@H](C)[C@H]1O[C@@H]1O[C@H](C)C[C@H](N(C)C)[C@H]1O [Compound 47, (2S,3R,6R,8R,9R,10R)-9-(((2S,3R,4S,6R)-4-(dimethylamino)-3-hydroxy-6-methyltetrahydro-2H-pyran-2-yl)oxy)-8-methoxy-2,4,6,8,10,12,12-heptamethyl-3-(piperidin-4-yl)-1-oxa-4-azacyclotridecane-11,13-dione]
4 to 32 (≈ 6.85 to 54.8 µM) | < 4 | < 4 | > 32 | > 32 | CO[C@]1(C)C[C@@H](C)CN(C)[C@@H]([C@H]2CCN(C)C2)COC(=O)C(C)(C)C(=O)[C@H](C)[C@H]1O[C@@H]1O[C@H](C)C[C@H](N(C)C)[C@H]1O [Compound 48, (3S,6R,8R,9R,10R)-9-(((2S,3R,4S,6R)-4-(Dimethylamino)-3-hydroxy-6-methyltetrahydro-2H-pyran-2-yl)oxy)-8-methoxy-4,6,8,10,12,12-hexamethyl-3-((S)-1-methylpyrrolidin-3-yl)-1-oxa-4-azacyclotridecane-11,13-dione]
> 32 | < 4 | 4 to 32 (≈ 6.11 to 48.9 µM) | > 32 | > 32 | CO[C@]1(C)C[C@@H](C)CN(C)[C@@H](C2CN(C(=O)[C@@H](C)N(C)C)C2)COC(=O)C(C)(C)C(=O)[C@H](C)[C@H]1O[C@@H]1O[C@H](C)C[C@H](N(C)C)[C@H]1O [Compound 52, (3S,6R,8R,9R,10R)-3-(1-(dimethyl-D-alanyl)azetidin-3-yl)-9-(((2S,3R,4S,6R)-4-(dimethylamino)-3-hydroxy-6-methyltetrahydro-2H-pyran-2-yl)oxy)-8-methoxy-4,6,8,10,12,12-hexamethyl-1-oxa-4-azacyclotridecane-11,13-dione]
4 to 32 (≈ 6.85 to 54.8 µM) | < 4 | < 4 | > 32 | > 32 | CO[C@]1(C)C[C@@H](C)CN(C)[C@@H]([C@@H]2CCCNC2)COC(=O)C(C)(C)C(=O)[C@H](C)[C@H]1O[C@@H]1O[C@H](C)C[C@H](N(C)C)[C@H]1O [Compound 53]
> 32 | > 32 | > 32 | > 32 | > 32 | CO[C@]1(C)C[C@@H](C)CN(C)[C@@H]([C@H]2CCCN(C(C)C)C2)COC(=O)C(C)(C)C(=O)[C@H](C)[C@H]1O[C@@H]1O[C@H](C)C[C@H](N(C)C)[C@H]1O [Compound 56, (3S,6R,8R,9R,10R)-9-(((2S,3R,4S,6R)-4-(dimethylamino)-3-hydroxy-6-methyltetrahydro-2H-pyran-2-yl)oxy)-3-((S)-1-isopropylpiperidin-3-yl)-8-methoxy-4,6,8,10,12,12-hexamethyl-1-oxa-4-azacyclotridecane-11,13-dione]
4 to 32 (≈ 6.54 to 52.3 µM) | < 4 | 4 to 32 (≈ 6.54 to 52.3 µM) | > 32 | > 32 | CO[C@]1(C)C[C@@H](C)CN(C)[C@@H]([C@H]2CCN(C(C)C)C2)COC(=O)C(C)(C)C(=O)[C@H](C)[C@H]1O[C@@H]1O[C@H](C)C[C@H](N(C)C)[C@H]1O [Compound 57, (3S,6R,8R,9R,10R)-9-(((2S,3R,4S,6R)-4-(Dimethylamino)-3-hydroxy-6-methyltetrahydro-2H-pyran-2-yl)oxy)-3-((S)-1-isopropylpyrrolidin-3-yl)-8-methoxy-4,6,8,10,12,12-hexamethyl-1-oxa-4-azacyclotridecane-11,13-dione]
4 to 32 (≈ 6.17 to 49.4 µM) | < 4 | 4 to 32 (≈ 6.17 to 49.4 µM) | > 32 | > 32 | CO[C@]1(C)C[C@@H](C)CN(C)[C@H](C2CCN(CC(F)F)CC2)COC(=O)C(C)(C)C(=O)[C@H](C)[C@H]1O[C@@H]1O[C@H](C)C[C@H](N(C)C)[C@H]1O [Compound 62, (3R,6R,8R,9R,10R)-3-(1-(2,2-difluoroethyl)piperidin-4-yl)-9-(((2S,3R,4S,6R)-4-(dimethylamino)-3-hydroxy-6-methyltetrahydro-2H-pyran-2-yl)oxy)-8-methoxy-4,6,8,10,12,12-hexamethyl-1-oxa-4-azacyclotridecane-11,13-dione]
4 to 32 (≈ 6.39 to 51.1 µM) | < 4 | < 4 | > 32 | > 32 | CCCN1CCC([C@H]2COC(=O)C(C)(C)C(=O)[C@H](C)[C@@H](O[C@@H]3O[C@H](C)C[C@H](N(C)C)[C@H]3O)[C@](C)(OC)C[C@@H](C)CN2C)CC1 [Compound 63, (3S,6R,8R,9R,10R)-9-(((2S,3R,4S,6R)-4-(dimethylamino)-3-hydroxy-6-methyltetrahydro-2H-pyran-2-yl)oxy)-8-methoxy-4,6,8,10,12,12-hexamethyl-3-(1-propylpiperidin-4-yl)-1-oxa-4-azacyclotridecane-11,13-dione]
4 to 32 (≈ 6.69 to 53.5 µM) | < 4 | < 4 | > 32 | > 32 | CO[C@]1(C)C[C@@H](C)CN(C)[C@@H](C2CCN(C)CC2)COC(=O)C(C)(C)C(=O)[C@H](C)[C@H]1O[C@@H]1O[C@H](C)C[C@H](N(C)C)[C@H]1O [Compound 64, (3S,6R,8R,9R,10R)-9-(((2S,3R,4S,6R)-4-(dimethylamino)-3-hydroxy-6-methyltetrahydro-2H-pyran-2-yl)oxy)-8-methoxy-4,6,8,10,12,12-hexamethyl-3-(1-methylpiperidin-4-yl)-1-oxa-4-azacyclotridecane-11,13-dione]
> 32 | 4 to 32 (≈ 7.02 to 56.2 µM) | > 32 | > 32 | > 32 | CO[C@]1(C)C[C@@H](C)CN(C)[C@H]([C@@H]2CCCN2)COC(=O)C(C)(C)C(=O)[C@H](C)[C@H]1O[C@@H]1O[C@H](C)C[C@H](N(C)C)[C@H]1O [Compound 65, (3R,6R,8R,9R,10R)-9-(((2S,3R,4S,6R)-4-(dimethylamino)-3-hydroxy-6-methyltetrahydro-2H-pyran-2-yl)oxy)-8-methoxy-4,6,8,10,12,12-hexamethyl-3-((S)-pyrrolidin-2-yl)-1-oxa-4-azacyclotridecane-11,13-dione]
> 32 | < 4 | 4 to 32 (≈ 5.74 to 45.9 µM) | > 32 | > 32 | CO[C@]1(C)C[C@@H](C)CN(C)[C@H](C2CCN(C(=O)CNCC(C)C)CC2)COC(=O)C(C)(C)C(=O)[C@H](C)[C@H]1O[C@@H]1O[C@H](C)C[C@H](N(C)C)[C@H]1O [Compound 66, (3R,6R,8R,9R,10R)-9-(((2S,3R,4S,6R)-4-(dimethylamino)-3-hydroxy-6-methyltetrahydro-2H-pyran-2-yl)oxy)-3-(1-(isobutylglycyl)piperidin-4-yl)-8-methoxy-4,6,8,10,12,12-hexamethyl-1-oxa-4-azacyclotridecane-11,13-dione]
> 32 | < 4 | 4 to 32 (≈ 6.11 to 48.9 µM) | > 32 | > 32 | CO[C@]1(C)C[C@@H](C)CN(C)[C@@H]([C@H]2CCN(C(=O)CN(C)C)C2)COC(=O)C(C)(C)C(=O)[C@H](C)[C@H]1O[C@@H]1O[C@H](C)C[C@H](N(C)C)[C@H]1O [Compound 67, (3S,6R,8R,9R,10R)-9-(((2S,3R,4S,6R)-4-(dimethylamino)-3-hydroxy-6-methyltetrahydro-2H-pyran-2-yl)oxy)-3-((S)-1-(dimethylglycyl)pyrrolidin-3-yl)-8-methoxy-4,6,8,10,12,12-hexamethyl-1-oxa-4-azacyclotridecane-11,13-dione]

SMILES | MIC (S. aureus MP-12) [µg/mL] | MIC (E. coli MP-4) [µg/mL] | MIC (K. pneumoniae MP-546) [µg/mL] | MIC (P. aeruginosa MP-3) [µg/mL] | MIC (A. baumannii MP-15) [µg/mL]
CNCC(=O)N1C2CCC1CC([C@@H]1COC(=O)C(C)(C)C(=O)[C@H](C)[C@@H](O[C@@H]3O[C@H](C)C[C@H](N(C)C)[C@H]3O)[C@](C)(OC)C[C@@H](C)CN1C)C2 (stereo partly drawn) [Compound 44, (3R,6R,8R,9R,10R)-9-(((2S,3R,4S,6R)-4-(dimethylamino)-3-hydroxy-6-methyltetrahydro-2H-pyran-2-yl)oxy)-8-methoxy-4,6,8,10,12,12-hexamethyl-3-(8-(methylglycyl)-8-azabicyclo[3.2.1]octan-3-yl)-1-oxa-4-azacyclotridecane-11,13-dione] | > 32 | 4 to 32 (≈ 5.87 to 47 µM) | > 32 | > 32 | > 32
